In patent US20030143559A1, “Novel estrogen receptor ligand binding domain variants and novel ligands and pharmaceutical compositions” (priority 2001, published 2003):
Residue numbers refer to the chain shown, from its start. Several values for one entry are separate records, joined by “and”; a condition that tells them apart may be missing. Equal entries are not always repeated.

Experiments:
wild-type ER = molecular target: T1, wild-type ER (Homo sapiens, UniProt P03372); assay: Inhibition of E2 activity on wild-type ER, COS-7 cells with pHEGO and ERE luciferase reporter; type: cell-based; details: IC50 ± STDEV, pHEGO and pERETkLuc, E2 (3 nM) + 0.1 to 1000 nM compound
T1 construct: expressed in transfected cells; host or cells: COS-7
T1 sequence (P03372 1-595): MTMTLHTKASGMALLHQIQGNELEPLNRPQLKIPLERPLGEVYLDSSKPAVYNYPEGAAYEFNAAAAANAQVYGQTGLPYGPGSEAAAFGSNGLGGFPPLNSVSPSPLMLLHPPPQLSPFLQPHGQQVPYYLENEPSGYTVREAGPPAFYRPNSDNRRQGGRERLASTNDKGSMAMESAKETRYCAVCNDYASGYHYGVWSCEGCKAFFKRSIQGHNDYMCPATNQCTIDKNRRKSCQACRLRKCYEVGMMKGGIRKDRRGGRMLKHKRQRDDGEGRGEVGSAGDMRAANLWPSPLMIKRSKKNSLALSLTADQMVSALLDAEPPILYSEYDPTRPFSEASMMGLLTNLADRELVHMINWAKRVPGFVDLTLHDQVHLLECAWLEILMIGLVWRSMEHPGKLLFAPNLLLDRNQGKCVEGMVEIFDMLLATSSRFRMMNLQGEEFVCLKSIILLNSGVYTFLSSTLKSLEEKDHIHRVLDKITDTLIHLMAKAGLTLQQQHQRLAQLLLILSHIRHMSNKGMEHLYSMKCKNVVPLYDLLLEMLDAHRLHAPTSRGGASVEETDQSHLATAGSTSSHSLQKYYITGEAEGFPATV
Method: For transfection, 0.5 microgram of pERE2tkluc reporter plasmid, 20 ng of pHEGO, and 0.5 microgram of pCIneo inert carrier DNA were combined with 60 microliter serum-free DMEM and 5 microliter Qiagen Superfect transfection reagent, vortexed for 10s, and set at room temperature for 10 min. Each sample was diluted with 350 microliters of steroid-free media, mixed, and added to each well. Following 2 hr 30 min incubation at 37° C., cells were washed once with Dulbecco's phosphate buffered saline (DPBS), and refed with steroid-free media. […] Approximately 24 hr after treatment, cells were washed once with DPBS, then 200 microliter of reporter lysis buffer was added per well and frozen at −80° C. Cells were thawed at room temperature on an orbital shaker for 1 hr 30 min. A 10 microliter aliquot of lysate was transferred to 96 well opaque plates, and relative luciferase units (RLU) determined on a luminometer using the appropriate firefly luciferase substrate.
Note that the nonspecific activity is a noncompetable element in the assay system.
In order to dissolve them completely, all the solutions were warmed in 55° C. or boiled water bath for 10 to 20 min before use. The DMSO in cell culture medium was maintained to 0.01% for all the drug concentration tested as well as the vehicle control.

ER-LBD 421V/428A = molecular target: T2, ER-LBD 421V/428A (Homo sapiens, UniProt P03372, L428A/M421V); assay: ER-LBD 421V/428A transactivation, cotransfection luciferase reporter assay in HeLa cells; type: cell-based; details: p6x2C7Luc reporter, 0.003 to 1000 nM, mean of two or more experiments, read-out: EC50 ± STDEV
T2 construct: expressed in transfected cells; host or cells: HeLa
T2 sequence (P03372 311-547 M421V/L428A): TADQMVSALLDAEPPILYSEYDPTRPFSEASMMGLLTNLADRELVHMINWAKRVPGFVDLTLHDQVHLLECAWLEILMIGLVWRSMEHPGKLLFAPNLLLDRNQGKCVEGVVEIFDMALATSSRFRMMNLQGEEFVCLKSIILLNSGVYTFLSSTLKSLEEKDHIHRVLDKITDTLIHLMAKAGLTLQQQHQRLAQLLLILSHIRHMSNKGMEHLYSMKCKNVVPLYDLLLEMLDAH
Method: (§1) In order to evaluate the ability of the fusion proteins C7LBD A, B, and the related LBD mutants to regulate transgene expression, a standard co-transfection reporter assay was performed. A reporter construct, henceforth known as 6×2C7pGL3Luc, containing six copies of a directly repeated C7 binding site (6×2C7) inserted upstream of an SV40 promoter fragment and reporter gene encoding firefly luciferase (pGL3Pro; Promega) was transfected along with the designated fusion protein and assayed as described below. Note the consensus C7 binding site is 5′-GCG TGG GCG-3′.
(§2) Cultured cells (HeLa, Cos, Hep3B or other) were seeded at 5×10^4 cells/well in a 24 well plate prior to the day of transfection in DMEM Phenol-free media, supplemented with L-glutamine and 5% (v/v) charcoal-dextran stripped Fetal Bovine serum (sFBS). Cells were transfected using the Qiagen Superfect Transfection method. For each well 1 μg of total DNA, containing 0.5 μg luciferase reporter plasmid (6×2C7pGL3Luc), 0.1 μg of chimeric activator DNA (e.g., C7LBDA, C7LBDB, or mutants thereof ), and 0.4 μg of an inert carrier plasmid DNA (p3Kpn), was mixed with 60 μL of DMEM phenol-free/serum free media, and 5 μL of Superfect reagent. In general, about 10 ng to about 0.5 μg of chimeric activator DNA was used for each well. […]

[1] = molecular target: T3, 388V-424Y-428A transcription factor system (Homo sapiens, UniProt P03372, I424Y/L428A/M388V); assay: In vivo regulation of endostatin transgene, gutless vectors, serum endostatin ELISA; parameters: species or system C57BL/6 mice; details: 50 ug/animal IP; for Endostatin Levels: vectors 5×10^10 particles/mouse each, n = 3
T3 construct: fragment B=ER amino acids 258-554; expressed in transfected cells; host or cells: HeLa cells transduced with Av3 or gutless adenoviral vector
T3 sequence (P03372 258-554 M388V/I424Y/L428A): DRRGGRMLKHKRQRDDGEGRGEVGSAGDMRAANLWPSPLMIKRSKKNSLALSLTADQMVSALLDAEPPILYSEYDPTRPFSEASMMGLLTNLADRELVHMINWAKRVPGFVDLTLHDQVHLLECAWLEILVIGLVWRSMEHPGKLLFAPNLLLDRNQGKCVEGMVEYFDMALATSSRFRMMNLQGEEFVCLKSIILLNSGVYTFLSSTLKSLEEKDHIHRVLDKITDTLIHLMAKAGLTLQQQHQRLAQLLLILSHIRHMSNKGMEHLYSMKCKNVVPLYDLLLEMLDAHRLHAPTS
Method: To address this issue of sustained induction, a second in vivo study was performed.

[2] = molecular target: T4, 388V-424Y-428A transcription factor (Homo sapiens, UniProt P03372, I424Y/L428A/M388V); assay: In vitro inducible luciferase expression with gutless adenoviral transcription factor vector in Hela cells; type: cell-based
T4 construct: fragment B=ER amino acids 258-554; expressed in transfected cells; host or cells: HeLa cells transduced with Av3 or gutless adenoviral vector
T4 sequence (P03372 258-554 M388V/I424Y/L428A): T3 sequence (P03372 258-554 M388V/I424Y/L428A)

ER-LBD 388V/424Y/428A = molecular target: T5, ER-LBD 388V/424Y/428A (Homo sapiens, UniProt P03372, I424Y/L428A/M388V); assay: ER-LBD 388V/424Y/428A transactivation, cotransfection luciferase reporter assay in HeLa cells; type: cell-based
T5 construct: expressed in transfected cells; host or cells: HeLa
T5 sequence (P03372 311-547 M388V/I424Y/L428A): T2 sequence (P03372 311-547 M421V/L428A) with M78V, V111M, I114Y
Method: as §1, §2

Av3-388V/424Y/428A = molecular target: T6, Av3-388V/424Y/428A (Homo sapiens, UniProt P03372, I424Y/L428A/M388V); assay: Transactivation on adenoviral (Av3)-delivered ER variant, luciferase in HeLa cells; type: cell-based; details: 100 nM test compound, 24 hrs (FIG. 5)
T6 construct: fragment B=ER amino acids 258-554; expressed in transfected cells; host or cells: HeLa cells transduced with Av3 or gutless adenoviral vector
T6 sequence (P03372 258-554 M388V/I424Y/L428A): T3 sequence (P03372 258-554 M388V/I424Y/L428A)
From the text: Xu et al., Molecular Therapy, 3:262-273, 2000.

Av3-421/428 = molecular target: T7, Av3-421/428 (Homo sapiens, UniProt P03372, L428A/M421V); assay: as above
T7 sequence (P03372 258-554 M421V/L428A): T3 sequence (P03372 258-554 M388V/I424Y/L428A) with V131M, M164V, Y167I
From the text: For example, the ER LBD mutants of the present invention were constructed into a replication defective adenoviral vector (Av3) backbone DNA sequence so that this regulatory system could be delivered into cells for clinical application and testing. An Av3 vector containing a series of C7 binding sites linked to an SV40 minimal promoter and luciferase transgene (C7-SV40-luc) was also constructed and delivered simultaneously with each of the Av3 ER LBD mutant vectors. The cells were then exposed to the corresponding ligand to test the capability of the adenoviral-delivered ER mutants to respond to their corresponding ligands and then mediate the transcription of the luciferase transgene in the context of an adenoviral vector. […] Xu et al., Molecular Therapy, 3:262-273, 2000.

Structure (SMILES)	melting point	IC50 (wild-type ER)	EC50 (ER-LBD 421V/428A)	endostatin expression, result in words [1]	Endostatin Levels ([1]; Day 1)	Endostatin Levels ([1]; Day 3)	Endostatin Levels ([1]; Day 7)	Fold Induction ([2]; 100 nM ligand vs without ligand)	Luciferase Expression Levels (Relative Light Units) ([2]; (+) induced with 100 nM ligand, mean +/− standard error (n = 4))	EC50 (ER-LBD 388V/424Y/428A; HeLa cells cotransfected with pC7ERLBD 388V/424Y/428A and p6x2C7Luc, 0.1 to 1000 nM, mean of two or more experiments, read-out: EC50 ± STDEV)	sensitivity of mutant ER LBD 388V/424Y/428A to LBB 938 relative to estrogen (ER-LBD 388V/424Y/428A; ratio of EC50 values)	luciferase activity over the basal level (Av3-388V/424Y/428A)	response relative to basal activity / fold induction (Av3-421/428; 100 nM test compound, 24 hrs (FIG. 5))	fold induction at 0.1 µM (Av3-421/428; read-out: response relative to basal activity / fold induction)
COC(=O)NC/C(=C(/c1ccc(O)cc1)c1ccc(OCCN(C)C)cc1)c1ccccc1 [LBB551, Carbamic acid, [(2Z)-3-[4-[2-(dimethylamino)ethoxy]phenyl]-3-(4-hydroxyphenyl)-2-phenyl-2-propenyl]-, methyl ester]	122 to 123 °C	955 nM	4.89 nM	–	–	–	–	–	–	–	–	–	–	–
CN(C)CCOc1ccc(/C(=C(/CC2CC3CCC2C3)c2ccccc2)c2ccc(O)cc2)cc1 (stereo not drawn) [LBB938, 4-((1Z))-3-bicyclo[hept-2-yl-1-{4-[2-(dimethylamino)ethoxy]phenyl}-2-phenylprop-1-enyl)phenol]	–	388 nM	–	induce endostatin expression	6074 ± 3536 ng/mL	2332 ± 333 ng/mL	600 ± 72 ng/mL	90 fold	3284939 +/− 116076 Relative Light Units	28.4 nM and ~28 nM	approximately eight	19 fold	–	–
COC(=O)NC/C(=C(\c1ccc(O)cc1)c1ccc(OCCN(C)C)cc1)c1ccccc1 [LBC081, Carbamic acid, [(2E)-3-[4-[2-(dimethylamino)ethoxy]phenyl]-3-(4-hydroxyphenyl)-2-phenyl-2-propenyl]-, methyl ester]	161 to 162 °C	845 nM	11.7 nM	–	–	–	–	–	–	–	–	–	three	3
